Assay results reported in US20200172974A1, “BIOMARKER FOR ANTI-TNF THERAPY IN RETINAL DISEASES” (HADASIT MEDICAL RESEARCH SERVICES & DEVELOPMENT LTD., priority 2017, published 2020).

Assays:
[1] = test system: choroidal neovascularization (CNV); assay: Laser-induced model of CNV (LI-CNV); format: in vivo, Long-Evans rats; settings: flat mounts 10 days after laser injury
Method: Long-Evans rats (8-12 weeks old) were used to generate LI-CNV. Animals were treated in accordance to the guidelines of ARVO. Experiments were conducted with the approval of the institutional animal care ethics committee. Before each procedure, rats were anesthetized by intraperitoneal injections of a mixture of 85% ketamine (Bedford Laboratories, Bedford, Ohio) and 15% xylazine (VMD, Arendonk, Belgium). Topical anesthesia (Oxybuprocaine HCL 0.4%; Fisher Pharmaceuticals, Tel-Aviv, Israel) was applied to each eye 10 minutes before intravitreal injections or laser photocoagulation.
Laser burns (5-7 burns per eye) were generated. Intravitreal injections of all compounds were performed using a PLI-100 Pico-Injector (Medical System Corp., Greenvale, N.Y.) two days following the laser to allow for CNV development, and every 2 days thereafter for a total of 10 days. iMfs were injected only once, two days after laser injury was performed.
Experimental groups included: 4 μl of PBS, 1 μl of 100 μg/μl infliximab, 1 μl of 100 μg/μl aflibercept, 1 μl of 100 μg/μl infliximab with 1×10^5 M(IFNγ and LPS) suspended in 4 μl of PBS; 1 μl of 100 μg/μl aflibercept with 1×10^5 M(IFNγ and LPS) suspended in 4 μl of PBS; and 1×10^5 M(IFNγ and LPS) suspended in 4 μl of PBS, for a total of 5 experimental groups and 1 control group. Each experimental group included 8 injected eyes of 4 rats. The compound dosage was previously described (Xu et al., (2008)). Antibiotic ointment (5% Chloramphenicol) was applied after every injection. Choroid-RPE and retinal flat mounts were prepared 10 days following the laser injury.
RPE-choroidal flat-mounts were fixated for one hour in 4% PFA and suspended overnight in isolectin solution (GS-Ib4 Alexa 594 staining solution, Molecular Probes, Eugene, Oreg.) containing 200 mM NaN3 and 1 mM CaCl2). Flat mounts were then washed 6 times for 20 minutes in PBS and embedded on a slide with a mounting medium. The CNV area around each laser injury was measured using the ImageJ software.

[2] = test system: choroidal sprouting (choroid-sclera complex with RPE in Matrigel); assay: Choroid-sprouting assay (CSA), ex-vivo angiogenesis assay; format: cell-based, C57/BL6J mice; settings: fixed after 8 days
Method: Cytokines were added to the media based on the maximal level of each cytokine via ELISA of M(IFNγ and LPS)-derived media. Five (5) cytokines were tested (n=8; replicates for each cytokine): 0.25 ng/μl VEGF, 0.5 ng/μl IL-8, 2.5 ng/μl IL-6, 0.05 ng/μl IL-1β, and 0.8 5 ng/μl TNFα (PeproTech, Rocky Hill, N.J., USA). Anti-TNF (infliximab, 100 μg/μl Remsima, Celltrion Inc., South Korea) and anti-VEGF (Aflibercept, 40 μg/μl, Bayer Pharma AG, Berlin, Germany), with or without iMfs' supernatant were also studied in the CSA. Compounds' concentrations were based on previous studies (Grattendick et al., (2008)). Controls included medium-treated CSA and iMfs' supernatant treated CSA.
C57/BL6J 4-6 weeks old mice, treated in accordance with the guidelines of the Association for Research in Vision and Ophthalmology (ARVO), were utilized to generate the CSA. Experiments were conducted with the approval of the institutional animal care ethics committee. Five (5) minutes after injecting with ketamine, animals were evaluated for responses and euthanized by cervical dislocation. Eyes were immediately enucleated and kept in ice-cold ECGS medium containing 100 units/ml penicillin-streptomycin and 1% glutamine before dissection. A choroid-sclera complex from the mice was gently dissected along with retinal pigment epithelium (RPE). The complex was cut into 5-6 1 mm long pieces. Fragments were embedded in 30 μl of growth factor-reduced-Matrigel™ (BD Biosciences, Cat. 354230) in 24-well plates. The thickness of the Matrigel™ was approximately 0.4 mm. Plates were then incubated for 10 minutes in 37° C., in a 5% CO2 cell culture incubator without medium to solidify the Matrigel™. Five hundred (500) μl of medium containing ECGM (C-22010, Promocell, Germany) 2.5% supplement mix (C-9215, Promocell, Germany), 5% FCS, 100 units/ml penicillin-streptomycin, and 1% glutamine, was added to each well. For the experimental groups containing the iMfs' supernatant, the medium was replaced with 250 μl of iMfs' supernatant. Medium for each well was changed every 3 days, and the cultures were fixed with 4% PFA after 8 days. Cultures were viewed with an inverted phase-contrast CKX41 Olympus microscope, and images were photographed with an Olympus DP70 digital camera (Olympus, Tokyo, Japan).
ImageJ software was used for sprouting area quantification. Sprouting area was selected by the software and measured after excluding the choroid tissue. Background (control well, for each plate, supplemented with medium only) was subtracted and analysis was performed for each sample. Ratios of each well of experimental group and its relative control from the same eye were calculated and averaged with its replicates.

[3] = intravitreal injection together with 1×10^5 M(IFNγ and LPS) iMfs
[4] = intravitreal injection, substance alone, compared to PBS
[5] = substance added alone to CSA medium, cytokines at maximal level found in M(IFNγ and LPS) media, infliximab 100 μg/μl

## Aflibercept [anti-VEGF]
[1]; [3]
  Mean of CNV size±SEM: 0.02±0.001
[1]; [4]
  Mean of CNV size±SEM: 0.024±0.002

## IL-1β: recombinant cytokine (PeproTech), 0.05 ng/μl
[2]; [5]
  Mean of relative ratio between treated and untreated wells±SEM (sprouting area): 0.8±0.2

## IL-6: recombinant cytokine (PeproTech), 2.5 ng/μl
[2]; [5]
  Mean of relative ratio between treated and untreated wells±SEM (sprouting area): 0.64±0.1

## IL-8: recombinant cytokine (PeproTech), 0.5 ng/μl
[2]; [5]
  Mean of relative ratio between treated and untreated wells±SEM (sprouting area): 0.47±0.14

## TNFα
[2]; [5]
  Mean of relative ratio between treated and untreated wells±SEM (sprouting area): > 1.6±0.2

## VEGF
[2]; [5]
  Mean of relative ratio between treated and untreated wells±SEM (sprouting area): 0.86±0.08

## infliximab [anti-TNF]
[2]; [5]
  Mean of relative ratio between treated and untreated wells±SEM (sprouting area): 1.14±0.06
[2]; with M(IFNγ and LPS)s' supernatant
  Mean of relative ratio between treated and untreated wells±SEM (sprouting area): > 1.06±0.04
[1]; [3]
  Mean of CNV size±SEM: > 0.036±0.004
[1]; [4]
  Mean of CNV size±SEM: 0.045±0.005
